Drawing on patent publication US11850287B2, “Heterocyclic acyl hydrazone linkers, methods and uses thereof” (Ontario Institute for Cancer Research (OICR), priority 2017, dated 2023), this text covers IC50 and half-life for two molecules.

In data set [1] the test system is SKOV3 ovarian cells. Put plainly: Cytotoxicity against SKOV3 ovarian cancer cells (ATP content, CellTiter-Glo). Type of data set: cell-based. The conditions noted are these: DAR ratio 3.39 (Synagis-SMCC-DM1), 3.50 (Trastuzumab-SMCC-DM1), 6.59 (IIIa), 6.99 (IIIc).
Protocol: SKOV3 ovarian cells are incubated with the effectors for a period corresponding to 2 to 3 times their estimated doubling time and the amount of viable cells is determine by measuring ATP content in the wells. […] All ADCs are diluted in DPBS to 6× the highest concentration tested, followed by 10 3-fold serial dilutions in DPBS for a total of 11 concentration points. Each point is added to triplicate wells. DPBS is added in wells to measure the maximum growth. Cells are diluted at their appropriate seeding density (ranging from 150 to 1000 cells per well) in complete media supplemented with glutamine 2 mM, serum and antibiotic cocktail. They are distributed in white, opaque bottom, tissue-culture treated 384 well plates and incubated for 24 hrs at 37° C.+5% CO2. […] Total ATP is measured using CellTiter-Glo reagent from Promega as recommended by the supplier. […] Signal output is measured on a luminescence plate reader (envision, Perkin Elmer) set at an integration time of 0.1 sec. […]
Each concentration point (S) is normalized to the negative control wells (NC) and expressed as % survival (NC-S/NC×100). Potency (IC50) and efficacy are calculated from a non-linear curve fit of the points versus log of the concentrations without constrain on the slope. Refined data are analysed using Prism software.
Data set [2] can be described thus: Half-life of model acyl hydrazones in a simulated lysosomal environment (pH 4.5). Type of data set: physicochemical. The conditions noted are these: simulated lysosomal environment (acidic buffer). From the text: Ranging from the intracellularly readily cleavable linkers such as the acyl hydrazones to the relatively stable non-cleavable linkers, having the ability to tune the rate of release of the payload and to improve plasma stability provides opportunities not only to target a greater variety of diseased cells, but also to design agents tailored to achieve a better therapeutic window. Towards the goal of developing enhanced control of ADC linker stability, several model heterocyclic acyl hydrazones whose lability is modulated either by steric or stereoelectronic effects have been prepared.
Towards the goal developing enhanced control of ADC linker stability, several model cyclic acyl hydrazones whose lability is modulated by different substitutions have been prepared. Exemplary acyl hydrazones containing a substituted phenyl group adjacent to the imine carbon have been synthesized. […] Analogues of the heterocyclic linker compounds in Table 1 have been incorporated into linkers, using a similar strategy as employed in the linker synthesis in Mylotarg, as described in greater detail herein below

What is called IC50 is the concentration that gives 50% inhibition. As for Synagis-SMCC-DM1: negative control ADC, the IC50 in data set [1] was 9.64 nM.

The half-life is the time in which the quantity being followed falls by half. Read a high half-life as slow decline. With `CC(=O)N/N=C1\CCOc2ccc(F)cc21` [E], the half-life in data set [2] is 2.32 h.
